Molecules are shown by their SMILES.

Common to all, as to assay type: biochemical
In assay [1] the target is T1, actSHP2 (Src-homology-2-domain-containing PTP 2) (Homo sapiens, UniProt Q06124, C333P/V428C/S430C/D431C).
T1 construct: gene PTPN11; His6-tagged catalytic domain
T1 sequence (Q06124 247-517 C333P/V428C/S430C/D431C limits assumed): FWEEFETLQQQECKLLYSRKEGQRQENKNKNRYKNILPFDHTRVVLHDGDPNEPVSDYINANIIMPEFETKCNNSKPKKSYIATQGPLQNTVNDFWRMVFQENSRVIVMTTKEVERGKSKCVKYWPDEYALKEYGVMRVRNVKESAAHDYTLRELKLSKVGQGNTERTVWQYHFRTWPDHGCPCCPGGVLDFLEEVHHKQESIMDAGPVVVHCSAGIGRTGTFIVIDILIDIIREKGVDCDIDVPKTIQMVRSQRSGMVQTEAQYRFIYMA
Put plainly: pNPP phosphatase assay (activation at […]).

The target of assay [2] is T2, actHePTP (hematopoietic PTP) (Homo sapiens, UniProt P35236, E262C/S263C/T260C).
T2 construct: gene PTPN7; His6-tagged catalytic domain, residues 65–360
T2 sequence (P35236 65-360 T260C/E262C/S263C): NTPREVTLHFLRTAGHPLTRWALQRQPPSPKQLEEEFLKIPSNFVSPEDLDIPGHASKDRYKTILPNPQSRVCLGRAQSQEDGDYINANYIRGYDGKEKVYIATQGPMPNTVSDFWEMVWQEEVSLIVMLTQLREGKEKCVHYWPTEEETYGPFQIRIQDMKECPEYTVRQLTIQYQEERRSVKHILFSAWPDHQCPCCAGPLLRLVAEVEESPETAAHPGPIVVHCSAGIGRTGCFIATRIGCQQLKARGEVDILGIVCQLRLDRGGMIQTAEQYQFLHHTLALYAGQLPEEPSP
Briefly: pNPP phosphatase assay (activation, dose dependence); also in-gel fluorescence of labelled protein in lysate.

For the next assay, the target named is T3, actPTPκ (PTPkappa) (Homo sapiens, UniProt Q15262, H1056C/V1053C/Y1055C).
T3 construct: gene PTPRK; His6-tagged catalytic domain, residues 870–1154
T3 sequence (Q15262 869-1153 V1053C/Y1055C/H1056C): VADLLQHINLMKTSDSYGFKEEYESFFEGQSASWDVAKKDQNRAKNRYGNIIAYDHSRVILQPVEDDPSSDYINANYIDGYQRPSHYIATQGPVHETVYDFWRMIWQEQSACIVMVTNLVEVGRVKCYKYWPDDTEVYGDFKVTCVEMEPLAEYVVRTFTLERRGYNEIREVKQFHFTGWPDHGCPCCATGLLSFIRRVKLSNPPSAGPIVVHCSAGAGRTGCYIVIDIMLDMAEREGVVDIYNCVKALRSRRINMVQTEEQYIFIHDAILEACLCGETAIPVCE
The assay is described as above.

In general, AC50 refers to the concentration giving half of the maximal activity seen. The low end stands for greater potency, the high end for weaker potency. Consider `CC1(C)C(/C=C/C=C/C=C2/N(CCCCS(=O)(=O)O)c3ccc([As]4SCCS4)cc3C2(C)C)=[N+](CCCCS(=O)(=O)[O-])c2ccc([As]3SCCS3)cc21` [AsCy5], for which the “pNPP phosphatase assay (activation at 1 μM)” value in assay [1] was “Both cyanine-derived biarsenicals, AsCy3 and AsCy5, were more successful in activating actSHP2 than FlAsH and ReAsH”. Also, the figures for the AC50 (in assay [2]; at actPTPκ (PTPkappa)) were about 200 nM and about 600 nM, respectively.

For the origin of these results see article PMC6834593, “Chemical activation of divergent protein tyrosine phosphatase domains with cyanine-based biarsenicals” (Scientific Reports, 2019).
